In paper PMC6429214, “Design, Synthesis and Biological Evaluation of Isoxazole-Based CK1 Inhibitors Modified with Chiral Pyrrolidine Scaffolds” (Molecules, 2019):
Counter-ions that a name gives are not always drawn.

Tests used:
[1] = molecular target: T1, human CK1δ transcription variant 1 (Homo sapiens, UniProt P48730); test: in-vitro kinase assay CK1δ; format: biochemical; conditions: 10 µM ATP, mean ± SD, n = 3; for remaining activity at 10 µM: read-out: CK1δ Residual Activity [%] at 10 µM ± SD
T1 construct: made in house; own knowledge
Source text: Human CK1δ transcription variant 1 (CK1δ TV1_NM_001893.4) has been amplified from the cDNA obtained from HT1080 cell line, using CK1δ_forward-primer: 5′-GGATCCATGGAGCTGAGAGTCGGGAACAG-3′ and CK1δ_reverse primer: 5′-GGATCCTCATCGGTGCACGACAGACTGA-3′. The CK1δ DNA construct was cloned into pSC-A cloning vector (Agilent technologies, Munich, Germany) with BamHI enzyme, to generate plasmids pGEX6-P3-GST-CK1δ TV1 (FP1417). Overexpression and purification of GST-CK1δ TV1 protein has been performed as described before.
(§1) In vitro kinase assays have been performed to both screen, as well as to calculate IC50 values of the compounds for CK1δ and ε. Each reaction was carried out using 2 μCi ^32P-γ-ATP in kinase buffer containing 25 mM Tris-HCl (pH = 7.5), 10 mM MgCl2, 100 µM EDTA, and 10 µM ATP. […] Recombinant human CK1δ transcription variant 1 (expressed and purified as GST fusion protein as described earlier) and human GST-CK1ε (PV3500; Invitrogen) were used as sources of enzyme, while α-casein (C6780; Sigma-Aldrich) was used as substrate. Kinase reactions were incubated for 30 min at 30 °C and then stopped with loading dye (50 mM Tris-HCl (pH = 6.8), 5% (v/v) β-mercaptoethanol (MSH), 10% (v/v) glycerol, 2% (w/v) sodium dodecyl sulfate (SDS), 0.1% (w/v) bromphenol blue). Subsequently, reactions were separated by sodium dodecyl sulfate polyacrylamide gel electrophoresis (SDS-PAGE) and phosphorylated protein bands were visualized on dried gels by autoradiography. The phosphorylated substrate protein bands were excised, and phosphorylation was quantified by Cherenkov counting. Dose-response analyses and calculation of IC50 values were carried out using GraphPad Prism 6 statistical software (San Diego, CA, USA).

[2] = molecular target: T2, human GST-CK1ε (Homo sapiens, UniProt P49674); test: in-vitro kinase assay CK1ε; format: biochemical; conditions: 10 µM ATP, mean ± SD, n = 3; for remaining activity at 10 µM: read-out: CK1ε Residual Activity [%] at 10 µM ± SD
T2 construct: purchased Invitrogen PV3500
T2 sequence (P49674 whole entry): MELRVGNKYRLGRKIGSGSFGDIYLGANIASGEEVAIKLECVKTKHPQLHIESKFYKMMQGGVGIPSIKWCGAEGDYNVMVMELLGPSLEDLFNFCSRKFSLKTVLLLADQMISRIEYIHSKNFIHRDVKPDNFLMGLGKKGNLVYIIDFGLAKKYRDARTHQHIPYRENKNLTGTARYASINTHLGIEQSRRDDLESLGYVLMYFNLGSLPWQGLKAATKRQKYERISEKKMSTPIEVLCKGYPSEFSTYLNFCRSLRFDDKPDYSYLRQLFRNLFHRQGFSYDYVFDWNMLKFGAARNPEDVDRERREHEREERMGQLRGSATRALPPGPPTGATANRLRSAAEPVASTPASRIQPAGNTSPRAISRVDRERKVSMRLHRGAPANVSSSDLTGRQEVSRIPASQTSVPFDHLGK
Method: as §1

[3] = MTT cell viability assay MCF-7; format: cell-based, human; conditions: human, MCF-7 cells, mean ± SD
Method: (§2) The human colon adenocarcinoma cell line HT-29 was grown in McCoy’s 5A medium, whereas MCF7 cells were grown in DMEM medium. All media were supplemented with 10% fetal calf serum (FCS), 100 units/mL penicillin, 100 µg/mL streptomycin and 2 mM glutamine. All cells were grown at 37 °C in a humidified 5% carbon dioxide atmosphere.
(§3) In order to analyze the effects of selected inhibitors on the cell viability of HT-29 and MCF7 cells, MTT assays were performed. 1 × 10^4 cells/well were seeded in 96-well cell culture plates. After 24 h cells were treated with increasing concentrations of the indicated inhibitor compounds, with untreated and DMSO-treated cells as control. After an incubation period of 48 h, 10 µL of MTT solution (5 mg/mL in PBS) were added and cells were incubated for 4 h. MTT-containing medium was carefully removed and 100 µL acidic isopropanol (0.04 N HCl in isopropanol) per well were added. To dissolve formazan crystals, plates were shaken for 30 min on an orbital shaker in the dark. Finally, dissolved crystals were measured spectrophotometrically at 570 nm. All experiments were performed in triplicate with four technical replicates per assay. Results were normalized considering the mean optical density value of control wells as 100%. GraphPad Prism 6 software (San Diego, CA, USA) was used to calculate EC50 values.

[4] = MTT cell viability assay HT-29; format: cell-based, human; conditions: human, HT-29 cells, mean ± SD
Method: as §2, §3

[5] = tested on: MCF-7 cells; test: MTT cell viability assay MCF-7; format: cell-based, human; conditions: mean ± SD
Method: as §2, §3

[6] = tested on: HT-29 cells; test: MTT cell viability assay HT-29; format: cell-based, human; conditions: mean ± SD
Method: as §2, §3

[7] = LC-MS of aqueous solutions with and without PEG; format: physicochemical; conditions: LC-MS over 7 days, not in solutions without PEG
Source text: Since all analytical data for the originally employed inhibitors was consistent with the given structures, we postulate that the incorporation of an additional methylene group occurred via spontaneous Pictet-Spengler cyclization during crystallization. In line with this notion, PEG, which has been used in our soaking solutions, is known to generate formaldehyde traces that have been shown in the past to affect the derivatization of both, proteins and ligands. To further corroborate this hypothesis, we examined whether simple exposure of 29d/e to formaldehyde would give rise to the same Pictet-Spengler products 31a/b (Scheme 5). Indeed, when compounds 29d/e were treated with formaldehyde at room temperature 31a/b were formed readily and the obtained spectroscopic data was consistent with the predicted Pictet-Spengler products. In addition, aqueous solutions of 29d and 29e with and without PEG were analyzed by liquid chromatography-mass spectrometry (LC-MS) over a period of 7 days.
LC-MS was performed with a Bruker Esquire ~LC ion trap mass spectrometer (Bremen, Germany) in the positive ion mode (dry gas 9 L/min, nebulizer 35 psi, drying temperature 350 °C) after chromatographic separation using an Agilent 1100 HPLC system (Waldbronn, Germany) with a RP-8 column (Agilent Eclipse XDB-C8, 150 × 4.6 mm, 5 μm) and a 0.1% acetic acid/acetonitrile gradient.

[8] = tested on: IRAK4; conditions: cited from earlier work
[9] = tested on: p38α; set-up: method as in PMID 18763757; conditions: cited from earlier work
[10] = tested on: Trk; set-up: method as in PMID 20336234; conditions: cited from earlier work
[11] = tested on: CK1δ; set-up: method as in PMID 19591487; conditions: cited from earlier work

COc1ccc(-c2cc(C(=O)Nc3cc(-c4c(-c5ccc(F)cc5)noc4C(C)C)ccn3)n(CC3NCC(O)C3O)c2)cc1 (centres unmarked) (as salt: trifluoroacetate) [29d]
melting point: 191 to 193 °C

COc1ccc(-c2cc(C(=O)Nc3cc(-c4c(-c5ccc(F)cc5)noc4C(C)C)ccn3)n(CC3NCC(O)C3O)c2)cc1 (centres unmarked) (as salt: trifluoroacetate) [29e]
melting point: 188 to 191 °C

COc1ccc(-c2cc(C(=O)Nc3cc(-c4c(-c5ccc(F)cc5)noc4C(C)C)ccn3)n(C)c2)cc1 [28a, N-{4-[3-(4-Fluorophenyl)-5-isopropylisoxazol-4-yl]pyridin-2-yl}-4-(4-methoxyphenyl)-1-methyl-1H-pyrrole-2-carboxamide]
remaining activity at 10 µM ([1]; 10 µM compound): 48 ± 7% | remaining activity at 10 µM ([2]; 10 µM compound): 70 ± 21% | viability at 48 h, 5 µM [3]: 103 ± 16% | viability at 48 h, 10 µM [3]: 88 ± 9% | viability at 48 h, 20 µM [3]: 54 ± 5% | viability at 48 h, 5 µM [4]: 111 ± 19% | viability at 48 h, 10 µM [4]: 98 ± 22% | viability at 48 h, 20 µM [4]: 78 ± 10% | melting point: 157 to 158 °C

COc1ccc(-c2cc(C(=O)Nc3cc(-c4c(-c5ccc(F)cc5)noc4C(C)C)ccn3)n(C)c2)c(OC)c1 [28b, 4-(2,4-Dimethoxyphenyl)-N-{4-[3-(4-fluorophenyl)-5-isopropylisoxazol-4-yl]pyridin-2-yl}-1-methyl-1H-pyrrole-2-carboxamide]
remaining activity at 10 µM ([1]; 10 µM compound): 48 ± 4% | remaining activity at 10 µM ([2]; 10 µM compound): 47 ± 11% | viability at 48 h, 5 µM [3]: 89 ± 13% | viability at 48 h, 10 µM [3]: 84 ± 11% | viability at 48 h, 20 µM [3]: 79 ± 12% | viability at 48 h, 5 µM [4]: 94 ± 23% | viability at 48 h, 10 µM [4]: 59 ± 14% | viability at 48 h, 20 µM [4]: 52 ± 10%

CC(C)c1onc(-c2ccc(F)cc2)c1-c1ccnc(NC(=O)c2cccn2C[C@H]2NC[C@H](O)[C@@H]2O)c1 [29c, (2R,3R,4S)-2-{[2-({4-[3-(4-Fluorophenyl)-5-isopropylisoxazol-4-yl]pyridin-2-yl}carbamoyl)-1H-pyrrol-1-yl]methyl}-3,4-dihydroxypyrrolidin-1-ium trifluoroacetate]
IC50 [1]: 0.45 ± 0.07 µM | remaining activity at 10 µM ([1]; 10 µM compound): 7.7 ± 0.2% | IC50 [2]: 1.5 ± 0.3 µM | remaining activity at 10 µM ([2]; 10 µM compound): 18 ± 1% | viability at 48 h, 5 µM [3]: 90 ± 10% | viability at 48 h, 10 µM [3]: 81 ± 5% | EC50 ([5]; Homo sapiens, MCF7, 48 h): 39 ± 12 µM | viability at 48 h, 5 µM [4]: 80 ± 16% | viability at 48 h, 10 µM [4]: 78 ± 11% | EC50 ([6]; Homo sapiens, HT-29, 48 h): 24 ± 6 µM

COc1ccc(-c2cc(C(=O)Nc3cc(-c4c(-c5ccc(F)cc5)noc4C(C)C)ccn3)n(CC3NCC(O)C3O)c2)cc1 (centres unmarked) [29e]
IC50 [1]: 0.047 ± 0.004 µM | CK1δ Residual Activity [%] at 10 µM ± SD ([1]; 10 µM compound): 3.4 ± 0.7% | IC50 [2]: 0.063 ± 0.009 µM | CK1ε Residual Activity [%] at 10 µM ± SD ([2]; 10 µM compound): 14 ± 3% | MCF-7 Cell Viability [%] 5 µM ([5]; 5 µM, 48 h): 90 ± 27% | MCF-7 Cell Viability [%] 10 µM ([5]; 10 µM, 48 h): 58 ± 18% | MCF-7 Cell Viability [%] 20 µM ([5]; 20 µM, 48 h): 8.0 ± 3.4% | EC50 ([5]; 48 h): 10 ± 2 µM | HT-29 Cell Viability [%] 5 µM ([6]; 5 µM, 48 h): 75 ± 13% | HT-29 Cell Viability [%] 10 µM ([6]; 10 µM, 48 h): 42 ± 10% | HT-29 Cell Viability [%] 20 µM ([6]; 20 µM, 48 h): 11 ± 3% | EC50 ([6]; 48 h): 8.8 ± 0.8 µM | formation of Pictet-Spengler products in aqueous solution with PEG [7]: significant product formation

COc1ccc(-c2cc(C(=O)Nc3cc(-c4c(-c5ccc(F)cc5)noc4C(C)C)ccn3)n(C[C@H]3NC[C@H](O)[C@@H]3O)c2)c(OC)c1 [29f]
IC50 [1]: 0.037 ± 0.004 µM | remaining activity at 10 µM ([1]; 10 µM compound): 2.8 ± 0.5% | IC50 [2]: 0.1 ± 0.014 µM | remaining activity at 10 µM ([2]; 10 µM compound): 9.7 ± 1.6% | viability at 5 µM ([5]; Homo sapiens, MCF7, 48 h, 5 µM): 87 ± 5% | viability at 10 µM ([5]; Homo sapiens, MCF7, 48 h, 10 µM): 33 ± 7% | viability at 20 µM ([5]; Homo sapiens, MCF7, 48 h, 20 µM): 3.9 ± 0.2% | EC50 ([5]; Homo sapiens, MCF7, 48 h): 9.6 ± 0.8 µM | viability at 5 µM ([6]; Homo sapiens, HT-29, 48 h, 5 µM): 50 ± 10% | viability at 10 µM ([6]; Homo sapiens, HT-29, 48 h, 10 µM): 25 ± 5% | viability at 20 µM ([6]; Homo sapiens, HT-29, 48 h, 20 µM): 9.4 ± 3% | EC50 ([6]; Homo sapiens, HT-29, 48 h): 5.4 ± 0.4 µM

COc1ccc(-c2cc(C(=O)Nc3cc(-c4c(-c5ccc(F)cc5)noc4C(C)C)ccn3)n3c2CN2C[C@H](O)[C@H](O)[C@H]2C3)cc1 [31a, (1R,2S,10aR)-N-{4-[3-(4-Fluorophenyl)-5-isopropylisoxazol-4-yl]pyridin-2-yl}-1,2-dihydroxy-6-(4-methoxyphenyl)-2,3,10,10a-tetrahydro-1H,5H-dipyrrolo[1,2-a:1’,2’-d]pyrazine-8-carboxamide]
IC50 [1]: 0.011 ± 0.001 µM | IC50 [2]: 0.056 ± 0.005 µM | EC50 ([5]; 48 h): 1.3 ± 0.2 µM | EC50 ([5]; Homo sapiens, MCF7, 48 h): < 2 µM | EC50 ([6]; 48 h): 1.1 ± 0.1 µM | EC50 ([6]; Homo sapiens, HT-29, 48 h): < 2 µM

COc1ccc(-c2cc(C(=O)Nc3cc(-c4c(-c5ccc(F)cc5)noc4C(C)C)ccn3)n3c2CN2C[C@@H](O)[C@@H](O)[C@@H]2C3)cc1 [31b, (1S,2R,10aS)-N-{4-[3-(4-Fluorophenyl)-5-isopropylisoxazol-4-yl]pyridin-2-yl}-1,2-dihydroxy-6-(4-methoxyphenyl)-2,3,10,10a-tetrahydro-1H,5H-dipyrrolo[1,2-a:1’,2’-d]pyrazine-8-carboxamide]
IC50 [1]: 0.024 ± 0.004 µM | IC50 [2]: 0.196 ± 0.026 µM | EC50 ([5]; 48 h): 1.9 ± 0.3 µM | EC50 ([5]; Homo sapiens, MCF7, 48 h): < 2 µM | EC50 ([6]; 48 h): 1.4 ± 0.2 µM | EC50 ([6]; Homo sapiens, HT-29, 48 h): < 2 µM

Cc1cc(Nc2ncc(-c3nc4ccncc4s3)c(N[C@@H]3C[C@H](CO)[C@@H](O)[C@H]3O)n2)cc(C)n1 [compound 4]
IC50 [8]: 0.0003 µM

CC(C)C(C)Nc1cc(-c2[nH]c(SC[C@@H](O)CO)nc2-c2ccc(F)cc2)ccn1 (some centres unmarked) [compound 5]
IC50 [9]: 0.015 µM

C[C@]12O[C@H](C[C@]1(O)CO)n1c3ccccc3c3c4c(c5c6ccccc6n2c5c31)CNC4=O [compound 7]
IC50 [10]: 0.025 µM

COc1ccc(/C=C/C(=O)Nc2cc(-c3c(-c4ccc(F)cc4)noc3C(C)C)ccn2)c(OC)c1 [compound 8]
IC50 [11]: 0.033 µM
